What was measured:
XBP1s = experiment: Determination of XBP1s level induced by various compounds (RT-qPCR splicing assay), several cell lines; type: cell-based, human; conditions: for induction of XBP1s: in a time, cell or concentration dependent manner; for ER stress measured by XBP1s level (FIG. 6): Hep G2, MCF-7 and RPMI 8226 cells, 1, 2 or 4 hours
Method: (§1) This method applies to any mammalian cell line but was typically applied to human MM1s myeloma cells for EC50 and RPMI 8826 plasmacytoma cells for confirmation of selected compounds. Briefly, cells were grown in standard conditions and spread into 96 well tissue culture plates. Cells were treated with compounds with indicated concentration using serial dilutions. DTT (dithiothreitol) or compounds were added at the same time and cells were harvested after indicated hour's treatment. Cells treated with DTT alone were used as 100% XBP1s positive controls and cell left untreated were used as base line XBP1s level.
(§2) Splicing Assay: Total RNA was isolated from cells treated with compounds using Applied Biosystems RNAqueous kit. 1 μg of total RNA was reverse transcribed using Oligo dt (12-18) (Invitrogen). The cDNA was then amplified at 95° C. for 8 min and 30 sec, then 40 cycles at 95° C. for 15 sec and 63° C. for 1 min. Samples were run against a purified standard curve for both spliced and unspliced XBP1, and further normalized to internal house-keeping gene GAPDH.

MCF-7 cells = experiment: XBP1s level induced in MCF-7 cells; type: cell-based, human
Method: as §1, §2
(§3) The same methods were used as above for Lestaurtinib.

Hepatoma cells = experiment: XBP1s level induced in Hepatoma (Hep G2) cells; type: cell-based, human
Method: as §1, §2

A549 cells = experiment: XBP1s level induced in A549 cells; type: cell-based, human
Method: as §1, with “Briefly,” for “This method applies to any mammalian cell line but was typically applied to human MM1s myeloma cells for EC50 and RPMI 8826 plasmacytoma cells for confirmation of selected compounds. Briefly,”
as §2, §3

RPMI 8226 cells = experiment: XBP1s level induced in RPMI 8226 cells; type: cell-based, human
Method: as §1, with “Briefly,” for “This method applies to any mammalian cell line but was typically applied to human MM1s myeloma cells for EC50 and RPMI 8826 plasmacytoma cells for confirmation of selected compounds. Briefly,”
as §2, §3

MM1s cells = experiment: XBP1s level induced in MM1s cells; type: cell-based, human
Method: as §1, §2, §3

[1] = system: human glioblastoma U-87 MG tumor cells; experiment: U-87 MG glioblastoma xenograft (Example 19); type: in vivo, female NCr nu/nu mice
Method: (§4) Orin 1001 was administered by oral gavage in a xenograft mouse model using female NCr nu/nu mice injected subcutaneously with human glioblastoma U-87 MG tumor cells, a glioblastoma multiforme (GBM) cell line. Animals were assigned to 4 groups (n=6/group); Vehicle control administered by oral gavage for 28 days, Orin 1001 administered via oral gavage at 300 mg/kg/day for 28 consecutive days, paclitaxel administered weekly by iv at 15 mg/kg, or Orin 1001 administered in combination with paclitaxel.
The percent tumor growth delay was calculated using the following equation: TGD (%)=[T-C/C]×100; where T-C is the difference in time to tumor endpoint from Treated (T) and Control (C).
The time to tumor endpoint (TTE) for each animal was further calculated using the following equation: TTE (days)=log 10 (endpoint volume, mm^3)-b/m, where b is the intercept and m is the slope of the line obtained by linear regression of the log-transformed tumor growth data set.

[2] = system: human breast adenocarcinoma MDA-MB231 tumor cells; type: in vivo; conditions: Orin 1001 300 mg/kg where given; paclitaxel 10 mg/kg iv weekly; n=10/group
Method: Orin 1001 was administered by oral gavage in combination with paclitaxel in a xenograft mouse model using female NCr nu/nu mice (n=10 in each group) injected subcutaneously with human breast adenocarcinoma MDA-MB231 tumor cells. To evaluate the effect of Orin 1001 in combination with paclitaxel, Orin 1001 was administered via oral gavage at 75, 150 or 300 mg/kg/day in combination with paclitaxel at 10 mg/kg iv, weekly (n=10/group) for up to 60 days.

[3] = system: human ovarian carcinoma A2780 tumor cells; experiment: A2780 ovarian carcinoma xenograft (Example 18); type: in vivo, female NCr nu/nu mice; conditions: Orin 1001 300 mg/kg/day oral 28 days; paclitaxel 15 mg/kg iv weekly; endpoint 2000 mm^3 or Day 60
Method: as §4, with “ovarian carcinoma A2780” for “glioblastoma U-87 MG”, “cells.” for “cells, a glioblastoma multiforme (GBM) cell line.”
The percent tumor growth delay was calculated using the following equation: TGD (%)=[T-C/C]×100, where T-C is the difference in time to tumor endpoint from Treated (T) and Control (C).

human liver HUH-7 cells = experiment: Subcutaneous HUH-7 liver cancer xenograft model, survival (Example 23); type: in vivo, Female BALB/c nude mice
Method: Female BALB/c nude mice were subcutaneously inoculated with human liver HUH-7 cells (from JCRB) to establish a xenograft model of liver cancer. The scheduled administration cycle was 28 days. Animals were assigned into 4 groups (n=10/group): one vehicle group, two single treatment groups (Orin 1001 administered at 80 mg/kg/day q.d. for 28 days; Sorafenib administered following a dose regimen of 18.25 mg/kg/day q.d. for 5 days, then 25 mg/kg/day q.d. for 3 days, and then 45 mg/kg/day q.d. for 20 days, consecutively) and one combination treatment group (sorafenib administered following a dose regimen of 18.25 mg/kg/day q.d. for 5 days, then 25 mg/kg/day q.d. for 3 days, and then 45 mg/kg/day q.d. for 20 days, consecutively, whilst combined with Orin 1001 administered q.d. at a dose of 80 mg/kg/day for 28 days). All vehicle or administration treatments were given via oral gavage. Sorafenib was formulated with Kolliphor® EL/ethanol (2/1, v/v) and water. Orin 1001 was dissolved with cellulose microcrystalline and sucrose in purified water to form as suspension. The mice were euthanized if a tumor volume achieved over 2000 mm^3. Otherwise the experiment ended on the 6th day after the last administration.

Hep3B-Luc cells = experiment: Orthotopic Hep3B-luc human liver xenograft model (Example 22); type: in vivo, female BALB/c nude mice
Method: The tumor was inoculated by injecting Hep3B-Luc cells (established by WuXi AppTec R&D center) mixed with BD Matrigel in 20 μl (PBS:Matrigel=1:1) into the left lobe of the liver. […] Sorafenib was formulated with Cremophor® EL/ethanol (1:1) and purified water to form a solution of 9 mg/ml. […] Tumor weight was measured at the termination of study. T/Cweight value (in percent) was calculated using the formula: T/Cweight%=Tweight/Cweight×100%, while Tweight and Cweight were the mean tumor weights of the treated and the vehicle control groups, respectively.

RPMI 8226 tumor cells = experiment: Intratumoral XBP-1 spliced effect in Velcade treated RPMI xenografts; type: in vivo, Nude mice; conditions: Velcade 0.8 mg/kg IV on day 21 and day 24, RPMI 8226 xenograft
Method: The mice were treated again on the 24th day with Velcade®. On Day 27, the mice were treated with Orin 1001 at 30 mg/kg PO, four hours later the mice were sacrificed as in Example 25, and tumor tissues were isolated. In a similar way as described for the liver PD test in Example 25, RNA extraction and RT-PCR analysis gave the results as shown FIG. 13.
BALB/c mice were injected intraperitoneally with 100 microliters at an equivalent dose of 1 mg/kg tunicamycin solution. Two hours after tunicamycin injection, mice were dosed with compound of interest either PO or IV. Following 2 hours for PO delivery of compound, mice were euthanized according to IACUC protocols using CO2 from a […] source. A 1 cm^3 fragment of the liver for homogenization and extraction of the RNA were collected for further analysis. Total RNA is harvested from cells or tissue using TRIzol according to the manufacturer's procedures. After ethanol precipitation and resuspension of the RNA, RiboGreen (Invitrogen) is used to quantify the yield and normalize the RNA concentration in the source tube containing isolated RNA. RT-PCR is performed by Oligo(dT) priming, and SuperScript II (Invitrogen) transcription using the Amplitaq Gold Kit (Applied Biosystems) according to the manufacturer's protocols. […]

HT-29 cells = experiment: XBP1s level induced in HT-29 cells; type: cell-based, human
Method: as §1, §2, §3

[4] = Orin 1001 300 mg/kg/day oral 28 days, paclitaxel 15 mg/kg iv weekly, endpoint 2000 mm^3 or Day 60

With `C=CCNC1=C2C[C@@H](C)C[C@H](OC)[C@H](O)[C@@H](C)/C=C(\C)[C@H](OC(N)=O)[C@@H](OC)/C=C\C=C(/C)C(=O)NC(=CC1=O)C2=O` [17-AAG] the “induction of XBP1s” value (XBP1s) was “able to induce XBP1s”, the “levels of XBP1s” value (MCF-7 cells; 1 hour of treatment) was “high levels” and the “levels of XBP1s” value (MCF-7 cells; 2 hours of treatment) was “modest levels”. The “levels of XBP1s” value (MCF-7 cells; 4 hours of treatment) was “low levels”, the “levels of XBP1s” value (Hepatoma cells; 1 hour of treatment) was “high levels” and the “levels of XBP1s” value (Hepatoma cells; 2 hours of treatment) was “modest levels”. The “levels of XBP1s” value (Hepatoma cells; 4 hours of treatment) was “low levels”.
In the case of `COc1cc2ncnc(Nc3ccc(F)c(Cl)c3)c2cc1OCCCN1CCOCC1` [Gefitinib], the “induction of XBP1s” value (XBP1s) is reported as “able to induce XBP1s”, the “levels of XBP1s” value (A549 cells; 1 hour of treatment) is reported as “increasing” and the “levels of XBP1s” value (A549 cells; 2 hours of treatment) is reported as “highest levels”.
With `Nc1ccn([C@@H]2O[C@H](CO)[C@@H](O)C2(F)F)c(=O)n1` [Gemcitabine] the “induction of XBP1s” value (XBP1s) was “able to induce XBP1s”, the “levels of XBP1s” value (RPMI 8226 cells; 1 hour of treatment) was “low levels” and the “levels of XBP1s” value (RPMI 8226 cells; 2 hours of treatment) was “low levels”. For the same compound, the “levels of XBP1s” value (RPMI 8226 cells; 4 hours of treatment) was “high levels”.
In the case of `Cc1cn(-c2cc(NC(=O)c3ccc(C)c(Nc4nccc(-c5cccnc5)n4)c3)cc(C(F)(F)F)c2)cn1` [Nilotinib], the XBP1s induced (MM1s cells; 1 hour of treatment) is reported as “modest amounts”, the XBP1s induced (MM1s cells; 2 hours of treatment) is reported as “greater than 50%” and the XBP1s induced (MM1s cells; 4 hours of treatment) is reported as “modest amounts”. The “induction of XBP1s” value (XBP1s) was “able to induce XBP1s”.
`CC(=O)O[C@H]1C(=O)[C@@]2(C)[C@H]([C@H](OC(=O)c3ccccc3)[C@]3(O)C[C@H](OC(=O)[C@H](O)[C@@H](NC(=O)c4ccccc4)c4ccccc4)C(C)=C1C3(C)C)[C@]1(OC(C)=O)CO[C@@H]1C[C@@H]2O` [Paclitaxel] was tested, and the “percent tumor growth delay (TGD)” value [1, 4] was 17%, the “time to tumor endpoint (TTE)” value [1, 4] was 30.2 days and the “tumor delay effect over the control” value ([1]; each agent alone) was “not very significant”. The “induction of XBP1s” value (XBP1s) was “able to induce XBP1s”, the “levels of XBP1s” value (RPMI 8226 cells; 1 hour of treatment) was “high levels” and the “levels of XBP1s” value (RPMI 8226 cells; 2 hours of treatment) was “modest levels”. For the same compound, the “levels of XBP1s” value (RPMI 8226 cells; 4 hours of treatment) was “modest levels”, the partial regressions [2] was 1 and the “percent tumor growth delay (TGD)” value [3] was 40%.
With `CNC(=O)c1cc(Oc2ccc(NC(=O)Nc3ccc(Cl)c(C(F)(F)F)c3)cc2)ccn1` [Sorafenib] the “induction of XBP1s” value (XBP1s) was “able to induce XBP1s”, the “Median Survival Time (MST)” value (human liver HUH-7 cells; Orin 1001 80 mg/kg/day q.d. 28 days, sorafenib 18.25/25/45 mg/kg, Kaplan-Meier) was 24 days and the “ILS (%) (increase of life span)” value (human liver HUH-7 cells; versus vehicle group (group 1)) was 20%. For the same compound, the “levels of XBP1s” value (A549 cells; 1 hour of treatment) was “highest levels”, the “levels of XBP1s” value (A549 cells; 2 hours of treatment) was “highest levels” and the “levels of XBP1s” value (A549 cells; 4 hours of treatment) was “modest levels”. The “T/Cweight (%)” value (Hep3B-Luc cells; mean tumor weight treated / vehicle control, day 28) was 19% and the “Tumor Weight (g) at day 28” value (Hep3B-Luc cells; oral gavage 28 consecutive days, Orin 1001 80 mg/kg/day, sorafenib 45 mg/kg/day) was 0.91 ± 0.29 g.
For `CO[C@H]1C[C@@H]2CC[C@@H](C)[C@@](O)(O2)C(=O)C(=O)N2CCCC[C@H]2C(=O)O[C@H]([C@H](C)C[C@@H]2CC[C@@H](OC(=O)C(C)(CO)CO)[C@H](OC)C2)CC(=O)[C@H](C)/C=C(\C)[C@@H](O)[C@@H](OC)C(=O)[C@H](C)C[C@H](C)/C=C/C=C/C=C/1C` [Torisel®, Temsirolimus], the “ER stress measured by XBP1s level (FIG. 6)” value (XBP1s) was “enhanced”, the “induction of XBP1s” value (XBP1s) was “able to induce XBP1s” and the “levels of XBP1s” value (A549 cells; 1 hour of treatment) was “high levels”. For the same compound, the “levels of XBP1s” value (A549 cells; 2 hours of treatment) was “modest levels” and the “levels of XBP1s” value (A549 cells; 4 hours of treatment) was “high levels”.
`Clc1ccc(Nc2nnc(Cc3ccncc3)c3ccccc23)cc1` [Vatalinib] was tested, and the “ER stress measured by XBP1s level (FIG. 6)” value (XBP1s) was “enhanced” and the “induction of XBP1s” value (XBP1s) was “able to induce XBP1s”.
For `CC(C)C[C@H](NC(=O)[C@H](Cc1ccccc1)NC(=O)c1cnccn1)B(O)O` [Velcade®, [(1R)-3-methyl-1-[[(2S)-1-oxo-3-phenyl-2-[(pyrazinylcarbonyl)amino]propyl]amino]butyl] boronic acid], the “level of XBP1s in tumor” value (RPMI 8226 tumor cells) was “increased the level of XBP1s”.
In the case of `O=C(CCCCCCC(=O)Nc1ccccc1)NO` [Vorinostat], the “induction of XBP1s” value (XBP1s) is reported as “able to induce XBP1s”, the “levels of XBP1s” value (HT-29 cells; 1 hour of treatment) is reported as “high levels” and the “levels of XBP1s” value (HT-29 cells; 2 hours of treatment) is reported as “little”. For the same compound, the “levels of XBP1s” value (HT-29 cells; 4 hours of treatment) was “little”.

Source: patent US20210260069A1, “IRE1a INHIBITOR IN COMBINATION WITH CANCER [sequence] AGENT FOR CANCER TREATMENT” (Fosun Orinove PharmaTech, Inc., priority 2018, published 2021)
